The NIST ThermoML archive (doi:10.1016/j.fluid.2014.05.033)
Several values for one entry are separate records, joined by “and”; a condition that tells them apart may be missing. Identical values can stand only once.

Experiments:
[1] = for kinematic viscosity / mass density: 101.33 kPa, Liquid; for kinematic viscosity: Capillary tube (Ostwald / Ubbelohde) method; for mass density: Vibrating tube method; for Normal melting temperature: Crystal, visual observation
[2] = refractive index (Na D-line) (dimensionless); details: 101.33 kPa, Liquid, Standard Abbe refractometry

COc1ccccc1 [anisole]
Details	kinematic viscosity, [1] [m2/s]	mass density, [1]	refractive index, [2]
288.15 K	1.123e-06	996.56 kg/m3	1.5198
293.15 K	1.041e-06	991.95 kg/m3	1.5169
298.15 K	9.71e-07	989.42 kg/m3 and 989.09 kg/m3	1.5143
303.15 K	8.99e-07	983.04 kg/m3	1.5117
308.15 K	8.39e-07	978.34 kg/m3	1.5092
313.15 K	7.89e-07	973.62 kg/m3	1.5063
318.15 K	7.4e-07	969.99 kg/m3	1.5041

COC(=O)OC [dimethyl carbonate]
Details	kinematic viscosity, [1] [m2/s]	mass density, [1] [kg/m3]	refractive index, [2]
288.15 K	6.05e-07	1077.16	1.371
293.15 K	5.7e-07	1070.18	1.3688
298.15 K	5.41e-07	1063.26	1.3664
303.15 K	5.08e-07	1056.23	1.364
308.15 K	4.76e-07	1049.85	1.3618
313.15 K	4.56e-07	1043.04	1.3595
318.15 K	4.33e-07	1036.51	1.357

Details	Normal melting temperature [°C]
[1]	5.01

O=C(Oc1ccccc1)Oc1ccccc1 [diphenyl carbonate]
Details	mass density [kg/m3]
[1], 358.15 K	1113.12

Details	Normal melting temperature
[1]	80.81 °C and 81.81 °C

CO [methanol]
Details	kinematic viscosity, [1] [m2/s]	mass density, [1]	refractive index, [2]
288.15 K	7.51e-07	796.5 kg/m3	1.3306
293.15 K	7.03e-07	791.46 kg/m3	1.3285
298.15 K	6.6e-07	786.59 kg/m3 and 786.69 kg/m3	1.3265
303.15 K	6.21e-07	782.03 kg/m3	1.3245
308.15 K	5.79e-07	777.29 kg/m3	1.3227
313.15 K	5.49e-07	772.51 kg/m3	1.3208
318.15 K	5.19e-07	767.69 kg/m3	1.3188

Details	Normal melting temperature [°C]
[1]	-98.00

COC(=O)Oc1ccccc1 [methyl phenyl carbonate]
Details	kinematic viscosity, [1] [m2/s]	mass density, [1]	refractive index, [2]
288.15 K	5.143e-06	1153.93 kg/m3	1.4991
293.15 K	4.275e-06	1148.74 kg/m3	1.4965
298.15 K	3.665e-06	1143.24 kg/m3 and 1143.63 kg/m3	1.4942
303.15 K	3.196e-06	1138.41 kg/m3	1.492
308.15 K	2.816e-06	1133.26 kg/m3	1.4896
313.15 K	2.486e-06	1128.11 kg/m3	1.4873
318.15 K	2.235e-06	1122.97 kg/m3	1.4853

Details	Normal melting temperature [°C]
[1]	-31.00

Oc1ccccc1 [phenol]
Details	mass density [kg/m3]
[1], 313.15 K	1058.51

Details	Normal melting temperature [°C]
[1]	40.90
